Reference: PubChem BioAssay AID464 (The Scripps Research Institute Molecular Screening Center, 2006)
The source made the active and inactive calls.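 The calls were made as follows: active = Compounds that kill half the cells at a concentration of 5 micromolar or below, from the fitted or estimated CC50; inactive = CC50 above 5 micromolar.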

Tested on: Jurkat E6.1 viability, ATP luminescence, 48 h
Assay: viability loss in Jurkat T cells – cell-based, ATP luminescence, 48 h, 60K MLSMR, cytotoxicity control, dose response (AID 464)

Compound	CC50
Cc1nc(NC(C)c2ccccc2)c2oc3ccccc3c2n1 (configuration not stated)	18.6 µM (inactive)
O=C(NCc1cccc(F)c1)c1noc2c1CCCC2	8.73 µM (inactive)
Cn1c(=O)c2c(nc(NCCO)n2CCc2ccccc2)n(C)c1=O	9.41 µM (inactive)
Cc1nn(Cc2ccccc2Cl)c(C)c1C(=O)Nc1nnc(C2CC2)s1	> 40 µM (inactive)
Cc1cc(NC(=O)c2cc(-c3ccncc3)nc3c(C)cccc23)no1	2.29 µM
Nc1nonc1-c1nc2ccccc2n1Cc1ccccc1	6.41 µM (inactive)
CCCc1ccc(-c2ccc(F)c(N)c2)nc1	> 40 µM (inactive)
COc1ccc2nc(NC(=O)c3cccc(OCc4c(C)noc4C)c3)sc2c1	1.6 µM
CS(=O)(=O)c1ncc(Cl)c(C(=O)Nc2ccc(N3CCOCC3)cc2)n1	2.61 µM
COc1ccc(C)cc1Nc1cc(C)nc2nc(C)nn12	7.08 µM (inactive)
O=C(c1cccc(C(=O)N2CCN(c3ccc(F)cc3)CC2)c1)N1CCN(c2ccc(F)cc2)CC1	> 40 µM (inactive)
Cc1cccc(N2CCN(C(=O)c3ccncc3)CC2)c1C	2.78 µM
CCOC(=O)c1[nH]c2c(c1C)C(=O)CC(c1ccco1)C2 (configuration not stated)	0.201 µM
O=C(c1cc(-c2ccc(O)cc2)on1)N1CCc2ccccc2C1	> 40 µM (inactive)
COC(=O)c1[nH]c2c(c1C)C(=O)CC(c1cccs1)C2 (configuration not stated)	0.677 µM
COc1cc2c(cc1OC)C(C)N(C(=O)c1cc3ccccc3o1)CC2 (configuration not stated)	24.4 µM (inactive)
CCOC(=O)c1[nH]c(C)c(C(=O)Nc2ccc(C)cc2C)c1C	1.64 µM
CCOC(=O)C1=C(N)n2c(s/c(=C\c3cccs3)c2=O)=C(C(=O)OCC)C1c1cccs1 (configuration not stated)	4.39 µM
CCOC(=O)Nc1ccc2c(c1)N(C(=O)OC)c1ccccc1CC2	> 4.4 µM (inactive)
CCOc1ccccc1C1CC(=O)NC2=C1C(=O)CCC2 (configuration not stated)	3.6 µM
O=C(c1ccc(F)cc1)C(CN1CCOCC1)c1ccccc1 (configuration not stated)	5.53 µM (inactive)
COc1ccccc1N1CCN(C(=O)CSc2nnc3n2C(C)(C)Cc2ccccc2-3)CC1	4.67 µM
COc1ccc(C2=Nn3c(nnc3-c3ccc(OC)cc3)SC2)cc1	0.325 µM
CCc1ccc(NS(=O)(=O)c2cc(OC)ccc2OC)cc1	16.6 µM (inactive)
Nc1c(C(=O)NCc2ccccc2)nnn1Cc1cccc(Cl)c1	4.49 µM
COc1ccccc1-c1cc(C(F)(F)F)nc(S(=O)(=O)CCCC(=O)N2CCOCC2)n1	2.22 µM

Compound	CC50
Cc1c(C(=O)N2CCCCC2)oc2ccc(S(=O)(=O)N3CC(C)CC(C)C3)cc12 (configuration not stated)	15.9 µM (inactive)
COc1cccc2sc(Nc3nnc(-c4ccccc4Cl)o3)nc12	1.13 µM
O=C(Nc1ccc2c(c1)nc1n2CCCCC1)c1cc(S(=O)(=O)N2CCOCC2)ccc1Cl	21.1 µM (inactive)
CCOC(=O)N1CCN(CC(=O)Nc2c(C(=O)OC)[nH]c3ccc(Cl)cc23)CC1	> 40 µM (inactive)
Cc1[nH]c2c(C(F)(F)F)cccc2c1CCN	10.4 µM (inactive)
COc1ccc(C(=O)N2CCN(c3cccc(Cl)c3)CC2)c(OC)c1	8.58 µM (inactive)
Cn1c(CN2CCOCC2)nc2cc(NC(=O)c3ccc(Cl)cc3)ccc21	1.26 µM
O=S1(=O)C=C(Sc2nnc(-c3ccccc3)o2)c2ccccc21	> 13 µM (inactive)
CCOC(=O)Nc1c(C(=O)OC)[nH]c2cc(OC)ccc12	7.94 µM (inactive)
O=S(=O)(CCSc1nc2ccccc2o1)c1nc2ccccc2s1	7.25 µM (inactive)
COc1cc(NS(=O)(=O)c2ccc(NC(C)=O)cc2)cc(OC)c1	14.8 µM (inactive)
Cc1cc(C)n(-c2ccc(C(=O)Nc3ccc(S(=O)(=O)NCc4ccco4)cc3)cc2)n1	5.24 µM (inactive)
CCCNc1nc2c(c(=O)n(C)c(=O)n2C)n1CCC(C)C	11.9 µM (inactive)
CN(C)c1ccc(-c2nn3c(-c4ccccc4Cl)nnc3s2)cc1	0.312 µM
Cc1cc(C(=O)Nc2sc3c(c2C#N)CCC3)no1	6.7 µM (inactive)
Cc1ccnc(NC(=O)CCCOc2cc(=O)n(C)c3ccccc23)c1	5.58 µM (inactive)
COc1ccccc1C1C=C(c2ccccc2)Nc2nnnn21 (configuration not stated)	> 13 µM (inactive)
COc1ccccc1S(=O)(=O)Cc1ccc(C(=O)N2CCN(c3cccc(Cl)c3)CC2)o1	3.75 µM
CN(C)c1nc(N)nc(CSc2nnnn2-c2cccc3ccccc23)n1	6.97 µM (inactive)
COC(=O)Nc1ccc(S(=O)(=O)N2CCCc3ccccc32)cc1	1.06 µM
CCn1c(=O)c(C(=O)Nc2nc3ccccc3[nH]2)c(O)c2ccccc21	14.3 µM (inactive)
COc1ccc(C2=Nn3c(nnc3-c3ccccc3OC)SC2)cc1OC	0.116 µM
OC1(c2cccc(C(F)(F)F)c2)CCN(c2ncnc3c2[nH]c2ccc(F)cc23)CC1	14.4 µM (inactive)
CSc1nnc2c3ccccc3n(CCc3ccccc3)c2n1	16.9 µM (inactive)
Oc1c(C(Nc2nc3ccccc3s2)c2ccco2)ccc2cccnc12 (configuration not stated)	7.79 µM (inactive)
Cc1cc2c(cc(C(=O)OCC(=O)NCc3cccs3)n2C(C)C)o1	0.837 µM

Compound	CC50
CN1/C(=C/C(=O)c2nc(S(C)(=O)=O)ncc2Cl)C(C)(C)c2ccccc21	> 13 µM (inactive)
COc1ccc(-c2nnc(NC(=O)c3ccc(S(=O)(=O)N4COCC4(C)C)cc3)o2)cc1	22.7 µM (inactive)
Cc1ccccc1S(=O)(=O)Cc1ccc(C(=O)N2CCN(c3cccc(C)c3C)CC2)o1	2.27 µM
C=CCN(C(=O)c1ccccc1)c1ccc(OC)cc1	9.5 µM (inactive)
CC(=O)Oc1ccc(Oc2ccc(-c3noc(C)n3)cc2)cc1	> 40 µM (inactive)
Cc1ccc2cc(CN(Cc3ccco3)C(=O)c3cccs3)c(=O)[nH]c2c1	2.6 µM
CCN(CC)S(=O)(=O)c1cc(C(=O)Nc2ccncc2)ccc1Cl	8.55 µM (inactive)
CCCOc1ccccc1C1CC(=O)NC2=C1C(=O)CCC2 (configuration not stated)	1.52 µM
C=CCNc1nc2c(c(=O)n(C)c(=O)n2C)n1CCCCCC	2.76 µM
Cc1noc(C)c1CSc1nc2ccccc2c(=O)n1-c1ccc(F)cc1F	> 4.4 µM (inactive)
Nc1nnnn1/N=C/C(Br)=C/c1ccccc1	> 13 µM (inactive)
O=C(Nc1ccc(N2CCCC2)cc1)c1cccc(F)c1	8.17 µM (inactive)
CCCCn1c2c(c(=N)c3c1CCC3)CCC2	3.9 µM
CCOC(=O)c1ccccc1NC(=O)Cn1c(-c2nonc2N)nc2ccccc21	0.296 µM
c1ccc2c(CCNc3ncnc4nc[nH]c34)c[nH]c2c1	3.85 µM
COc1ccccc1-c1cc(C(=O)Nc2cc(C)nn2-c2ccccc2)no1	6.14 µM (inactive)
CC(C)c1cc(C(=O)Nc2cc(Cl)ccc2O)no1	> 40 µM (inactive)
c1ccc(CNc2ncnc3c2cnn3-c2ccccc2)cc1	3.54 µM
O=S1(=O)C=C(Sc2nc3cc(Cl)ccc3o2)c2ccccc21	9.93 µM (inactive)
COC(=O)c1ccc(Oc2cc(C)nc(SC)n2)cc1	1.68 µM
COc1cc(C2CC(=O)c3c([nH]c(C(=O)OCCOC(C)C)c3C)C2)cc(OC)c1OC (configuration not stated)	6.55 µM (inactive)
COc1ccc(CNC(=O)c2cc3c(C)nc4ccccc4c3o2)c(OC)c1	> 40 µM (inactive)
CC(C)C(=O)Nc1ccc(C(=O)NCc2cccnc2)cc1	3.87 µM
COCCOC(=O)c1[nH]c2c(c1C)C(=O)CC(c1ccco1)C2 (configuration not stated)	0.945 µM
O=C(Nc1ccc(SC(F)F)cc1)c1ccc2nccnc2c1	13.1 µM (inactive)
